Laboratory results reported in ChEMBL document CHEMBL1909294, “Translating clinical findings into knowledge in drug safety evaluation--drug induced liver injury prediction system (DILIps)” (PLoS Comput Biol, 2011).

Tests used:
Hepatotoxicity [1] = test system: Hepatotoxicity;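 for HepSE cholelithiasis: hepatic side effect score for cholelithiasis, drawn from the DILIps training data for predicting drug-induced liver injury; call rule not given here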;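 for HepSE cirrhosis: cirrhosis hepatic side effect score taken from the DILIps (drug-induced liver injury prediction) training set; call rule not given here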;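 for HepSE hepatitis: Hepatitis-related hepatic side effect score taken from the training data of DILIps, a prediction system for drug-induced liver injury; call rule not given here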;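 for HepSE hepatomegaly: hepatic side effect score for hepatomegaly, taken from the training set of the DILIps drug-induced liver injury prediction system; call rule not given here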;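 for HepSE jaundice: Jaundice-related hepatic side-effect score drawn from the training data of the DILIps (drug-induced liver injury prediction system); call rule not given here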;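 for HepSE liver function tests abnormal: hepatic side effect score taken from the DILIps (drug-induced liver injury prediction system) training data, here covering abnormal liver function test findings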
Hepatotoxicity [2] = test system: Hepatotoxicity; remark: listed apart in the source;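 for HepSE cholelithiasis: hepatic side effect score for cholelithiasis, drawn from the DILIps training data for predicting drug-induced liver injury; call rule not given here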;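 for HepSE cirrhosis: cirrhosis hepatic side effect score taken from the DILIps (drug-induced liver injury prediction) training set; call rule not given here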;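 for HepSE hepatitis: Hepatitis-related hepatic side effect score taken from the training data of DILIps, a prediction system for drug-induced liver injury; call rule not given here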;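 for HepSE hepatomegaly: hepatic side effect score for hepatomegaly, taken from the training set of the DILIps drug-induced liver injury prediction system; call rule not given here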;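 for HepSE jaundice: Jaundice-related hepatic side-effect score drawn from the training data of the DILIps (drug-induced liver injury prediction system); call rule not given here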;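 for HepSE liver function tests abnormal: hepatic side effect score taken from the DILIps (drug-induced liver injury prediction system) training data, here covering abnormal liver function test findings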
Hepatotoxicity [3] = test system: Hepatotoxicity; remark: listed apart in the source;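 for HepSE cholelithiasis: hepatic side effect score for cholelithiasis, drawn from the DILIps training data for predicting drug-induced liver injury; call rule not given here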;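 for HepSE cirrhosis: cirrhosis hepatic side effect score taken from the DILIps (drug-induced liver injury prediction) training set; call rule not given here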;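 for HepSE hepatitis: Hepatitis-related hepatic side effect score taken from the training data of DILIps, a prediction system for drug-induced liver injury; call rule not given here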;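 for HepSE hepatomegaly: hepatic side effect score for hepatomegaly, taken from the training set of the DILIps drug-induced liver injury prediction system; call rule not given here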;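 for HepSE jaundice: Jaundice-related hepatic side-effect score drawn from the training data of the DILIps (drug-induced liver injury prediction system); call rule not given here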;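 for HepSE liver function tests abnormal: hepatic side effect score taken from the DILIps (drug-induced liver injury prediction system) training data, here covering abnormal liver function test findings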
Hepatotoxicity [4] = test system: Hepatotoxicity; remark: listed apart in the source;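 for HepSE cirrhosis: cirrhosis hepatic side effect score taken from the DILIps (drug-induced liver injury prediction) training set; call rule not given here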;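 for HepSE hepatitis: Hepatitis-related hepatic side effect score taken from the training data of DILIps, a prediction system for drug-induced liver injury; call rule not given here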;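 for HepSE hepatomegaly: hepatic side effect score for hepatomegaly, taken from the training set of the DILIps drug-induced liver injury prediction system; call rule not given here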;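 for HepSE jaundice: Jaundice-related hepatic side-effect score drawn from the training data of the DILIps (drug-induced liver injury prediction system); call rule not given here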;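 for HepSE liver function tests abnormal: hepatic side effect score taken from the DILIps (drug-induced liver injury prediction system) training data, here covering abnormal liver function test findings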
Hepatotoxicity [5] = test system: Hepatotoxicity; remark: listed apart in the source
Hepatotoxicity [6] = test system: Hepatotoxicity; remark: listed apart in the source
Hepatotoxicity [7] = test system: Hepatotoxicity; remark: listed apart in the source
Hepatotoxicity [8] = test system: Hepatotoxicity; remark: listed apart in the source
Hepatotoxicity [9] = test system: Hepatotoxicity; remark: listed apart in the source
Hepatotoxicity [10] = test system: Hepatotoxicity; remark: listed apart in the source
Hepatotoxicity [11] = test system: Hepatotoxicity; remark: listed apart in the source
Hepatotoxicity [12] = test system: Hepatotoxicity; remark: listed apart in the source
Hepatotoxicity [13] = test system: Hepatotoxicity; remark: listed apart in the source
Hepatotoxicity [14] = test system: Hepatotoxicity; remark: listed apart in the source

CNC(=O)c1c(I)c(NC(C)=O)c(I)c(C(=O)[O-])c1I.[Na+] [IOTHALAMATE SODIUM]
HepSE_liver function tests abnormal (Hepatotoxicity [1]): 0 | HepSE_hepatomegaly (Hepatotoxicity [2]): 0 | HepSE_hepatitis (Hepatotoxicity [3]): 0 | HepSE_hepatic necrosis (Hepatotoxicity [4]): 0 | HepSE_cirrhosis (Hepatotoxicity [5]): 0 | HepSE_bilirubinemia (Hepatotoxicity [6]): 0 | HepSE_jaundice (Hepatotoxicity [7]): 0 | HepSE_cholelithiasis (Hepatotoxicity [8]): 0 | HepSE_cholecystitis (Hepatotoxicity [9]): 0 | HepSE_Combined Scores (Hepatotoxicity [10]): 0 | HepSE_elevated liver function tests (Hepatotoxicity [11]): 0 | HepSE_hepatic failure (Hepatotoxicity [12]): 0 | HepSE_liver disease (Hepatotoxicity [13]): 0 | HepSE_liver fatty (Hepatotoxicity [14]): 0

CNC(=O)c1c(I)c(NC(C)=O)c(I)c(C(=O)O)c1I [IOTHALAMIC ACID]
HepSE_liver function tests abnormal (Hepatotoxicity [1]): 0 | HepSE_hepatomegaly (Hepatotoxicity [2]): 0 | HepSE_hepatitis (Hepatotoxicity [3]): 0 | HepSE_hepatic necrosis (Hepatotoxicity [4]): 0 | HepSE_cirrhosis (Hepatotoxicity [5]): 0 | HepSE_bilirubinemia (Hepatotoxicity [6]): 0 | HepSE_jaundice (Hepatotoxicity [7]): 0 | HepSE_cholelithiasis (Hepatotoxicity [8]): 0 | HepSE_cholecystitis (Hepatotoxicity [9]): 0 | HepSE_Combined Scores (Hepatotoxicity [10]): 0 | HepSE_elevated liver function tests (Hepatotoxicity [11]): 0 | HepSE_hepatic failure (Hepatotoxicity [12]): 0 | HepSE_liver disease (Hepatotoxicity [13]): 0 | HepSE_liver fatty (Hepatotoxicity [14]): 0

O=C(NCC(O)CO)c1c(I)c(C(=O)NCC(O)CO)c(I)c(N(CCO)C(=O)CO)c1I (configuration not stated) [IOVERSOL]
HepSE_liver function tests abnormal (Hepatotoxicity [1]): 0 | HepSE_hepatomegaly (Hepatotoxicity [2]): 0 | HepSE_hepatitis (Hepatotoxicity [3]): 0 | HepSE_hepatic necrosis (Hepatotoxicity [4]): 0 | HepSE_cirrhosis (Hepatotoxicity [5]): 0 | HepSE_bilirubinemia (Hepatotoxicity [6]): 0 | HepSE_jaundice (Hepatotoxicity [7]): 0 | HepSE_cholelithiasis (Hepatotoxicity [8]): 0 | HepSE_cholecystitis (Hepatotoxicity [9]): 0 | HepSE_Combined Scores (Hepatotoxicity [10]): 0 | HepSE_elevated liver function tests (Hepatotoxicity [11]): 0 | HepSE_hepatic failure (Hepatotoxicity [12]): 0 | HepSE_liver disease (Hepatotoxicity [13]): 0 | HepSE_liver fatty (Hepatotoxicity [14]): 0

CCCCC1=NC2(CCCC2)C(=O)N1Cc1ccc(-c2ccccc2-c2nnn[nH]2)cc1 [IRBESARTAN]
HepSE_liver function tests abnormal (Hepatotoxicity [1]): 0 | HepSE_hepatomegaly (Hepatotoxicity [2]): 0 | HepSE_hepatitis (Hepatotoxicity [3]): 1 | HepSE_hepatic necrosis (Hepatotoxicity [4]): 0 | HepSE_cirrhosis (Hepatotoxicity [5]): 0 | HepSE_bilirubinemia (Hepatotoxicity [6]): 0 | HepSE_jaundice (Hepatotoxicity [7]): 1 | HepSE_cholelithiasis (Hepatotoxicity [8]): 0 | HepSE_cholecystitis (Hepatotoxicity [9]): 0 | HepSE_Combined Scores (Hepatotoxicity [10]): 3 | HepSE_elevated liver function tests (Hepatotoxicity [11]): 1 | HepSE_hepatic failure (Hepatotoxicity [12]): 0 | HepSE_liver disease (Hepatotoxicity [13]): 0 | HepSE_liver fatty (Hepatotoxicity [14]): 0

CCc1c2c(nc3ccc(OC(=O)N4CCC(N5CCCCC5)CC4)cc13)-c1cc3c(c(=O)n1C2)COC(=O)[C@]3(O)CC [IRINOTECAN]
HepSE_liver function tests abnormal (Hepatotoxicity [1]): 0 | HepSE_hepatomegaly (Hepatotoxicity [2]): 1 | HepSE_hepatitis (Hepatotoxicity [3]): 0 | HepSE_hepatic necrosis (Hepatotoxicity [4]): 0 | HepSE_cirrhosis (Hepatotoxicity [5]): 0 | HepSE_bilirubinemia (Hepatotoxicity [6]): 0 | HepSE_jaundice (Hepatotoxicity [7]): 1 | HepSE_cholelithiasis (Hepatotoxicity [8]): 0 | HepSE_cholecystitis (Hepatotoxicity [9]): 0 | HepSE_Combined Scores (Hepatotoxicity [10]): 2 | HepSE_elevated liver function tests (Hepatotoxicity [11]): 0 | HepSE_hepatic failure (Hepatotoxicity [12]): 0 | HepSE_liver disease (Hepatotoxicity [13]): 0 | HepSE_liver fatty (Hepatotoxicity [14]): 0

Cc1cc(C(=O)NNCc2ccccc2)no1 [ISOCARBOXAZID]
HepSE_liver function tests abnormal (Hepatotoxicity [1]): 0 | HepSE_hepatomegaly (Hepatotoxicity [2]): 0 | HepSE_hepatitis (Hepatotoxicity [3]): 0 | HepSE_hepatic necrosis (Hepatotoxicity [4]): 0 | HepSE_cirrhosis (Hepatotoxicity [5]): 0 | HepSE_bilirubinemia (Hepatotoxicity [6]): 0 | HepSE_jaundice (Hepatotoxicity [7]): 0 | HepSE_cholelithiasis (Hepatotoxicity [8]): 0 | HepSE_cholecystitis (Hepatotoxicity [9]): 0 | HepSE_Combined Scores (Hepatotoxicity [10]): 0 | HepSE_elevated liver function tests (Hepatotoxicity [11]): 0 | HepSE_hepatic failure (Hepatotoxicity [12]): 0 | HepSE_liver disease (Hepatotoxicity [13]): 0 | HepSE_liver fatty (Hepatotoxicity [14]): 0

FC(F)OC(Cl)C(F)(F)F (configuration not stated) [ISOFLURANE]
HepSE_liver function tests abnormal (Hepatotoxicity [1]): 0 | HepSE_hepatomegaly (Hepatotoxicity [2]): 0 | HepSE_hepatitis (Hepatotoxicity [3]): 1 | HepSE_hepatic necrosis (Hepatotoxicity [4]): 1 | HepSE_cirrhosis (Hepatotoxicity [5]): 0 | HepSE_bilirubinemia (Hepatotoxicity [6]): 0 | HepSE_jaundice (Hepatotoxicity [7]): 1 | HepSE_cholelithiasis (Hepatotoxicity [8]): 0 | HepSE_cholecystitis (Hepatotoxicity [9]): 0 | HepSE_Combined Scores (Hepatotoxicity [10]): 4 | HepSE_elevated liver function tests (Hepatotoxicity [11]): 0 | HepSE_hepatic failure (Hepatotoxicity [12]): 1 | HepSE_liver disease (Hepatotoxicity [13]): 0 | HepSE_liver fatty (Hepatotoxicity [14]): 0

NNC(=O)c1ccncc1 [ISONIAZID]
HepSE_liver function tests abnormal (Hepatotoxicity [1]): 0 | HepSE_hepatomegaly (Hepatotoxicity [2]): 0 | HepSE_hepatitis (Hepatotoxicity [3]): 0 | HepSE_hepatic necrosis (Hepatotoxicity [4]): 0 | HepSE_cirrhosis (Hepatotoxicity [5]): 0 | HepSE_bilirubinemia (Hepatotoxicity [6]): 1 | HepSE_jaundice (Hepatotoxicity [7]): 1 | HepSE_cholelithiasis (Hepatotoxicity [8]): 0 | HepSE_cholecystitis (Hepatotoxicity [9]): 0 | HepSE_Combined Scores (Hepatotoxicity [10]): 2 | HepSE_elevated liver function tests (Hepatotoxicity [11]): 0 | HepSE_hepatic failure (Hepatotoxicity [12]): 0 | HepSE_liver disease (Hepatotoxicity [13]): 0 | HepSE_liver fatty (Hepatotoxicity [14]): 0

CC(C)NCC(O)c1ccc(O)c(O)c1 (configuration not stated) [ISOPROTERENOL]
HepSE_liver function tests abnormal (Hepatotoxicity [1]; Liver): 0 | HepSE_hepatomegaly (Hepatotoxicity [2]; Liver): 0 | HepSE_hepatitis (Hepatotoxicity [3]; Liver): 0 | HepSE_hepatic necrosis (Hepatotoxicity [4]; Liver): 0 | HepSE_cirrhosis (Hepatotoxicity [5]; Liver): 0 | HepSE_bilirubinemia (Hepatotoxicity [6]; Liver): 0 | HepSE_jaundice (Hepatotoxicity [7]; Liver): 0 | HepSE_cholelithiasis (Hepatotoxicity [8]; Liver): 0 | HepSE_cholecystitis (Hepatotoxicity [9]; Liver): 0 | HepSE_Combined Scores (Hepatotoxicity [10]; Liver): 0 | HepSE_elevated liver function tests (Hepatotoxicity [11]; Liver): 0 | HepSE_hepatic failure (Hepatotoxicity [12]; Liver): 0 | HepSE_liver disease (Hepatotoxicity [13]; Liver): 0 | HepSE_liver fatty (Hepatotoxicity [14]; Liver): 0

O=[N+]([O-])O[C@H]1CO[C@H]2[C@@H]1OC[C@H]2O[N+](=O)[O-] [ISOSORBIDE DINITRATE]
HepSE_liver function tests abnormal (Hepatotoxicity [1]): 0 | HepSE_hepatomegaly (Hepatotoxicity [2]): 0 | HepSE_hepatitis (Hepatotoxicity [3]): 0 | HepSE_hepatic necrosis (Hepatotoxicity [4]): 0 | HepSE_cirrhosis (Hepatotoxicity [5]): 0 | HepSE_bilirubinemia (Hepatotoxicity [6]): 0 | HepSE_jaundice (Hepatotoxicity [7]): 0 | HepSE_cholelithiasis (Hepatotoxicity [8]): 0 | HepSE_cholecystitis (Hepatotoxicity [9]): 0 | HepSE_Combined Scores (Hepatotoxicity [10]): 0 | HepSE_elevated liver function tests (Hepatotoxicity [11]): 0 | HepSE_hepatic failure (Hepatotoxicity [12]): 0 | HepSE_liver disease (Hepatotoxicity [13]): 0 | HepSE_liver fatty (Hepatotoxicity [14]): 0

O=[N+]([O-])O[C@@H]1CO[C@H]2[C@@H]1OC[C@@H]2O [ISOSORBIDE MONONITRATE]
HepSE_liver function tests abnormal (Hepatotoxicity [1]): 0 | HepSE_hepatomegaly (Hepatotoxicity [2]): 1 | HepSE_hepatitis (Hepatotoxicity [3]): 0 | HepSE_hepatic necrosis (Hepatotoxicity [4]): 0 | HepSE_cirrhosis (Hepatotoxicity [5]): 0 | HepSE_bilirubinemia (Hepatotoxicity [6]): 0 | HepSE_jaundice (Hepatotoxicity [7]): 0 | HepSE_cholelithiasis (Hepatotoxicity [8]): 0 | HepSE_cholecystitis (Hepatotoxicity [9]): 1 | HepSE_Combined Scores (Hepatotoxicity [10]): 2 | HepSE_elevated liver function tests (Hepatotoxicity [11]): 0 | HepSE_hepatic failure (Hepatotoxicity [12]): 0 | HepSE_liver disease (Hepatotoxicity [13]): 0 | HepSE_liver fatty (Hepatotoxicity [14]): 0

CC(COc1ccccc1)NC(C)C(O)c1ccc(O)cc1 (configuration not stated) [ISOXSUPRINE]
HepSE_liver function tests abnormal (Hepatotoxicity [1]): 0 | HepSE_hepatomegaly (Hepatotoxicity [2]): 0 | HepSE_hepatitis (Hepatotoxicity [3]): 0 | HepSE_hepatic necrosis (Hepatotoxicity [4]): 0 | HepSE_cirrhosis (Hepatotoxicity [5]): 0 | HepSE_bilirubinemia (Hepatotoxicity [6]): 0 | HepSE_jaundice (Hepatotoxicity [7]): 0 | HepSE_cholelithiasis (Hepatotoxicity [8]): 0 | HepSE_cholecystitis (Hepatotoxicity [9]): 0 | HepSE_Combined Scores (Hepatotoxicity [10]): 0 | HepSE_elevated liver function tests (Hepatotoxicity [11]): 0 | HepSE_hepatic failure (Hepatotoxicity [12]): 0 | HepSE_liver disease (Hepatotoxicity [13]): 0 | HepSE_liver fatty (Hepatotoxicity [14]): 0

COC(=O)C1=C(C)NC(C)=C(C(=O)OC(C)C)C1c1cccc2nonc12 (configuration not stated) [ISRADIPINE]
HepSE_liver function tests abnormal (Hepatotoxicity [1]): 0 | HepSE_hepatomegaly (Hepatotoxicity [2]): 0 | HepSE_hepatitis (Hepatotoxicity [3]): 0 | HepSE_hepatic necrosis (Hepatotoxicity [4]): 0 | HepSE_cirrhosis (Hepatotoxicity [5]): 0 | HepSE_bilirubinemia (Hepatotoxicity [6]): 0 | HepSE_jaundice (Hepatotoxicity [7]): 0 | HepSE_cholelithiasis (Hepatotoxicity [8]): 0 | HepSE_cholecystitis (Hepatotoxicity [9]): 0 | HepSE_Combined Scores (Hepatotoxicity [10]): 1 | HepSE_elevated liver function tests (Hepatotoxicity [11]): 1 | HepSE_hepatic failure (Hepatotoxicity [12]): 0 | HepSE_liver disease (Hepatotoxicity [13]): 0 | HepSE_liver fatty (Hepatotoxicity [14]): 0
